How the values were obtained:
β-secretase (BACE) [1] = biological target: T1, β-secretase (BACE) (Homo sapiens, UniProt P56817); assay: BACE % Inhibition Assay ((Aedens)-[…]-(Dabcyl K-amide) substrate); type: biochemical; conditions: % error ±10%
T1 construct: purchased Panvera
Protocol: The substrate stock solution was prepared in DMSO as a 10 mg/mL solution. The substrate working solution was prepared by diluting the 10 mg/mL stock solution with substrate assay buffer to a final concentration of […]. The β-secretase (BACE) working solution was prepared by diluting a 0.83 mg/mL BACE stock solution with enzyme assay buffer to a final concentration of 4 μg/mL.
Test compounds were dissolved in DMSO to 10 mM.
The screening procedure for this assay was as follows: 15 μL of BACE working solution was pipetted into each well of a 96-well plate. To each well was then pipetted 2 μL of test compound at the selected concentration. Test compound and BACE were then mixed with a pipettor and incubated for 20 min at room temperature. To each well was then added 10 μL of the substrate working solution. The plates were then incubated for 1 hour at room temperature.
The procedure for the blank was as follows. 15 μL of assay buffer was pipetted into each well to be used as a blank control. To each well was then added 2 μL of vehicle and 10 μL of substrate working solution. The plates were then incubated for 1 hour at room temperature.
The procedure for the positive control was as follows: 15 μl of BACE working solution was pipetted into each well to be used as a positive control. To each well was then pipetted 2 μL of vehicle. Vehicle and BACE were then mixed with a pipettor and incubated for 20 min at room temperature. To each well was then added 10 μL of the substrate working solution. The plates were the incubated for 1 hour at room temperature.
For test compounds, % inhibition was determined at each concentration as follows: […]

β-secretase (BACE) [2] = biological target: T1, β-secretase (BACE); assay: BACE FS1 % Inhibition Assay; type: biochemical
Outline: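 Percent inhibition per compound concentration was referenced to vehicle-treated enzyme and no-enzyme wells. Enzyme at a 4 μg/mL working stock plus compound was mixed for 20 min at room temperature before the FS1 substrate (300 μg/mL working stock) was added for a 1 h room-temperature reaction.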

T1 sequence (P56817 46-501): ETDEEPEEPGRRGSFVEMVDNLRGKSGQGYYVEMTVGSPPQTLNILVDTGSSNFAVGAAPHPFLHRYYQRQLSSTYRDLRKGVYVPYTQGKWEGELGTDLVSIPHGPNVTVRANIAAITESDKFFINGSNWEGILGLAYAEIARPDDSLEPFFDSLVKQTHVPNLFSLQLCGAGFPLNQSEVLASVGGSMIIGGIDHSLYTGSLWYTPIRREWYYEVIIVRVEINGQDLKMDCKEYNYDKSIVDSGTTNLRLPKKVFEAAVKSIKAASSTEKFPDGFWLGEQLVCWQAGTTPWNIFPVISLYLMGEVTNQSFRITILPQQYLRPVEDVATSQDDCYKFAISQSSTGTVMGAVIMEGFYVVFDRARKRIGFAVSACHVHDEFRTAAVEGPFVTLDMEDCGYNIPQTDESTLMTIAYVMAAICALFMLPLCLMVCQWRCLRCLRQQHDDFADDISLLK

% Inhibition (β-secretase (BACE) [1]; 3 μM compound) [%]	% Inhibition (β-secretase (BACE) [1]; 10 μM compound) [%]	% Inhibition (β-secretase (BACE) [1]; 0.3 μM compound) [%]	% Inhibition (β-secretase (BACE) [1]; 1 μM compound) [%]	SMILES	further results
<30	–	<30	<30	NC1=Nc2ccc(Oc3ccccc3)cc2CN1Cc1cccc(CNC(=O)C(c2ccccc2)c2ccccc2)c1 [Compound 337]	–
<30	–	<30	<30	CCCC(CCC)C(=O)NCc1cccc(CN2Cc3cc(Oc4ccccc4)ccc3N=C2N)c1 [Compound 338]	–
<30	–	<30	<30	CCCCC(CC)C(=O)NCc1cccc(CN2Cc3cc(Oc4ccccc4)ccc3N=C2N)c1 (stereo not drawn) [Compound 339]	–
72	–	<30	<30	CCCCC(CC)C(=O)NCC(c1ccccc1)N1Cc2cc(Oc3ccccc3)ccc2N=C1N (stereo not drawn) [Compound 341]	–
119	–	50	93	NC1=Nc2ccc(Oc3ccccc3)cc2CN1C(CNC(=O)C1CCCCC1)c1ccccc1 (stereo not drawn) [Compound 342]	–
118	–	81	101	CCCC(CNC(=O)C1CCCCC1)N1Cc2cc(Oc3ccccc3)ccc2N=C1N (stereo not drawn) [Compound 343]	–
119	–	64	113	NC1=Nc2ccc(Oc3ccccc3)cc2CN1C(CNC(=O)CCC1CCCC1)C1CCCCC1 (stereo not drawn) [Compound 366]	–
111	–	<30	80	CC(C)(C)OC(=O)NCC(C1CCCCC1)N1Cc2cc(Oc3ccccc3)ccc2N=C1N (stereo not drawn) [Compound 367]	–
–	–	<30	50	NC1=Nc2ccc(Oc3ccccc3)cc2CN1C(CNC(=O)C1(c2ccc(Cl)cc2)CCCC1)C1CCCCC1 (stereo not drawn) [Compound 390]	–
120	–	75	116	NC1=Nc2ccc(Oc3ccccc3)cc2CN1C(CCNC(=O)C1CCCC1)C1CCCCC1 (stereo not drawn) [Compound 392]	–

More lines, now with the values behind:

SMILES	% Inhibition (β-secretase (BACE) [1]; 3 μM compound) [%]	% Inhibition (β-secretase (BACE) [1]; 10 μM compound) [%]	% Inhibition (β-secretase (BACE) [1]; 0.3 μM compound) [%]	% Inhibition (β-secretase (BACE) [1]; 1 μM compound) [%]	further results
CCOC(=O)CCN1Cc2cc(Oc3ccccc3)ccc2N=C1N [Compound 65]	<30	<30	–	–	–
CN(C(=O)[C@@H]1CCC[C@@H]1N1Cc2cc(Oc3ccccc3)ccc2N=C1N)C1CCCCC1 [Compound 72]	<30	<30	–	–	–
CN(C(=O)[C@@H]1CC[C@H](N2Cc3cc(Oc4ccccc4)ccc3N=C2N)C1)C1CCCCC1 [Compound 77]	<30	<30	–	–	–
CCN(CC)CCN1Cc2cc(Oc3ccccc3)ccc2N=C1N [Compound 79]	<30	<30	–	–	–
CN(C(=O)[C@H]1CCCC[C@H]1N1Cc2cc(Oc3ccccc3)ccc2N=C1N)C1CCCCC1 [Compound 81]	<30	<30	–	–	–
CN(C(=O)[C@@H]1CCCC[C@@H]1N1Cc2cc(Oc3ccccc3)ccc2N=C1N)C1CCCCC1 [Compound 87]	<30	<30	–	–	–
CN(C(=O)[C@@H]1CCCN1C(=O)CN1Cc2cc(Oc3ccccc3)ccc2N=C1N)C1CCCCC1 [Compound 88]	<30	<30	–	–	–
CN(C(=O)c1cc(CN2Cc3cc(Oc4ccccc4)ccc3N=C2N)ccn1)C1CCCCC1 [Compound 89]	77	81	–	–	–
CC(C)(C)OC(=O)N1CCC(N2Cc3cc(Oc4ccccc4)ccc3N=C2N)C1 (stereo not drawn) [Compound 93]	<30	<30	–	–	–
CN(C(=O)c1cccc(N2Cc3cc(Oc4ccccc4)ccc3N=C2N)c1)C1CCCCC1 [Compound 94]	<30	<30	–	–	–
CN(C(=O)c1ccc(CN2Cc3cc(Oc4ccccc4)ccc3N=C2N)cc1)C1CCCCC1 [Compound 97]	<30	53	–	–	–
CN(C(=O)C1CCC(CN2Cc3cc(Oc4ccccc4)ccc3N=C2N)CC1)C1CCCCC1 (stereo not drawn) [Compound 100]	<30	<30	–	–	–
CCCC(CCCC(=O)N(CC)C1CCCCC1)N1Cc2cc(Oc3ccccc3)ccc2N=C1N (stereo not drawn) [Compound 105]	<30	<30	–	–	% Inhibition (FS) (β-secretase (BACE) [2]; 0.3 μM test compound): <30%; % Inhibition (FS) (β-secretase (BACE) [2]; 1 μM test compound): <30%; % Inhibition (FS) (β-secretase (BACE) [2]; 3 μM test compound): <30%
Cc1ccc(S(=O)(=O)NCCN2Cc3cc(Oc4ccccc4)ccc3N=C2N)cc1 [Compound 109]	<30	58	–	–	–
CC(C)(C)C(=O)NCC(C1CCCCC1)N1Cc2cc(Oc3ccccc3)ccc2N=C1N (stereo not drawn) [Compound 317]	–	–	<30	66	–
NC1=Nc2ccc(Oc3ccccc3)cc2CN1Cc1cccc(CNC(=O)C23CC4CC(CC(C4)C2)C3)c1 [Compound 336]	<30	–	<30	<30	–
CN(C(=O)CCC(C1CCCCC1)N1Cc2cc(Oc3ccccc3)ccc2N=C1N)c1ccc(C(=O)O)cc1 (stereo not drawn) [Compound 766]	–	–	–	–	% Inhibition (FS) (β-secretase (BACE) [2]; 0.3 μM compound, FS1 substrate): <30%; % Inhibition (FS) (β-secretase (BACE) [2]; 1 μM compound, FS1 substrate): <30%; % Inhibition (FS) (β-secretase (BACE) [2]; 3 μM compound, FS1 substrate): <30%
CN(CC(=O)O)C(=O)CCC(C1CCCCC1)N1Cc2cc(Oc3ccccc3)ccc2N=C1N (stereo not drawn) [Compound 767]	–	–	–	–	% Inhibition (FS) (β-secretase (BACE) [2]; 0.3 μM compound, FS1 substrate): <30%; % Inhibition (FS) (β-secretase (BACE) [2]; 1 μM compound, FS1 substrate): 71%
CN(C(=O)CCC(C1CCCCC1)N1Cc2cc(Oc3ccccc3)ccc2N=C1N)C1CCC(C#N)CC1 (stereo not drawn) [Compound 769]	–	–	–	–	% Inhibition (FS) (β-secretase (BACE) [2]; 0.3 μM compound, FS1 substrate): <30%; % Inhibition (FS) (β-secretase (BACE) [2]; 1 μM compound, FS1 substrate): 61%
CN(C(=O)CCC(C1CCCCC1)N1Cc2cc(Oc3ccccc3)ccc2N=C1N)C1CCC(c2nn[nH]n2)CC1 (stereo not drawn) [Compound 770]	–	–	–	–	% Inhibition (FS) (β-secretase (BACE) [2]; 0.3 μM compound, FS1 substrate): <30%; % Inhibition (FS) (β-secretase (BACE) [2]; 1 μM compound, FS1 substrate): <30%; % Inhibition (FS) (β-secretase (BACE) [2]; 3 μM compound, FS1 substrate): <30%
NC1=Nc2ccc(Oc3ccccc3)cc2CN1[C@@H](CCC(=O)N[C@@H](CO)C(=O)O)C1CCOCC1 [Compound 771]	–	–	–	–	% Inhibition (FS) (β-secretase (BACE) [2]; 0.3 μM compound, FS1 substrate): 46%; % Inhibition (FS) (β-secretase (BACE) [2]; 1 μM compound, FS1 substrate): 79%; % Inhibition (FS) (β-secretase (BACE) [2]; 3 μM compound, FS1 substrate): 105%
COC(=O)Cc1cccc(CN(C)C(=O)CCC(C2CCCCC2)N2Cc3cc(Oc4ccccc4)ccc3N=C2N)c1 (stereo not drawn) [Compound 775]	–	–	–	–	% Inhibition (FS) (β-secretase (BACE) [2]; 0.3 μM compound, FS1 substrate): <30%; % Inhibition (FS) (β-secretase (BACE) [2]; 1 μM compound, FS1 substrate): 62%
CN(Cc1cccc(CC(=O)O)c1)C(=O)CCC(C1CCCCC1)N1Cc2cc(Oc3ccccc3)ccc2N=C1N (stereo not drawn) [Compound 778]	–	–	–	–	% Inhibition (FS) (β-secretase (BACE) [2]; 0.3 μM compound, FS1 substrate): <30%; % Inhibition (FS) (β-secretase (BACE) [2]; 1 μM compound, FS1 substrate): 77%
COC(=O)[C@@H](COCc1ccccc1)N(C)C(=O)CC[C@@H](C1CCCCC1)N1Cc2cc(Oc3ccccc3)ccc2N=C1N [Compound 779]	–	–	–	–	% Inhibition (FS) (β-secretase (BACE) [2]; 0.3 μM compound, FS1 substrate): 102%; % Inhibition (FS) (β-secretase (BACE) [2]; 1 μM compound, FS1 substrate): 107%; % Inhibition (FS) (β-secretase (BACE) [2]; 3 μM compound, FS1 substrate): 120%
COC(=O)C(COCc1ccccc1)N(C)C(=O)CCC(C1CCCCC1)N1Cc2cc(Oc3ccccc3)ccc2N=C1N (stereo not drawn) [Compound 780]	–	–	–	–	% Inhibition (FS) (β-secretase (BACE) [2]; 0.3 μM compound, FS1 substrate): 69%; % Inhibition (FS) (β-secretase (BACE) [2]; 1 μM compound, FS1 substrate): 97%
NC1=Nc2ccc(Oc3ccccc3)cc2CN1[C@@H](CCC(=O)N[C@@H](COCc1ccccc1)C(=O)O)C1CCOCC1 [Compound 782]	–	–	–	–	% Inhibition (FS) (β-secretase (BACE) [2]; 0.3 μM compound, FS1 substrate): 104%; % Inhibition (FS) (β-secretase (BACE) [2]; 1 μM compound, FS1 substrate): 107%; % Inhibition (FS) (β-secretase (BACE) [2]; 3 μM compound, FS1 substrate): 113%
COC(=O)[C@H](COCc1ccccc1)N(C)C(=O)CC[C@@H](C1CCOCC1)N1Cc2cc(Oc3ccccc3)ccc2N=C1N [Compound 786]	–	–	–	–	% Inhibition (FS) (β-secretase (BACE) [2]; 0.3 μM compound, FS1 substrate): 97%; % Inhibition (FS) (β-secretase (BACE) [2]; 1 μM compound, FS1 substrate): 105%; % Inhibition (FS) (β-secretase (BACE) [2]; 3 μM compound, FS1 substrate): 114%

Source: patent publication US8426429B2, “2-amino-quinazoline derivatives useful as inhibitors of β-secretase (BACE)” (Jansssen Pharmaceutica N.V., priority 2004, dated 2013)
